The source of these data is PubChem BioAssay AID540258 (Broad Institute, 2011).

Calls of active or inactive are those of the source.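 How the source made its calls: active means fitted curve reaching 40% activation at or below the top valid dose tested; inconclusive means flat curve at 30 to 70% activation, or poor fit; inactive means the rest.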

This assay concerns SK-MEL-5 TRPM1 promoter luciferase reporter, 24 h. Briefly: activation of TRPM1 promoter luciferase in melanoma cells – SK-MEL-5 cells, cherry-pick samples, dose response (AID 540258).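 Further: potency for activators that raise TRPM1 promoter luciferase signal.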
Take `O=C(NC1CC1)c1sc2cc(Cl)ccc2c1Cl`: the AC40 was 4.59 µM.
For the molecule `COC(=O)C(Cc1ccc(O)cc1)N1Cc2ccccc2C1=O` (configuration not stated), the AC40 was 5.9 µM.
For `O=c1c(-c2ccc(O)cc2)coc2cc(O)cc(O)c12`, the AC40 was 4.48 µM.
Turning to `c1csc(-c2noc(COc3ccc4c(c3)CCCC4)n2)c1`, the AC40 is 2.14 µM.
For the molecule `COc1ccc(Nc2nc(N)c3ccccc3n2)c(OC)c1`, the AC40 was 2.4 µM.
For `O=C(NC1CCCCCC1)c1c(O)c2ccccc2[nH]c1=O`, the AC40 is 1.1 µM.
With `O=c1c2ccccc2oc2cc(NCCCn3ccnc3)ccc12`, the AC40 is 0.989 µM.
Next, `COc1ccc(NC(=O)c2ccc3[nH]c(C)c(C)c3c2)cc1`: 22.4 µM; `CC(C)c1ccc(NC(=O)c2snc3ccc(Cl)cc23)cc1`: 1.11 µM; `Cc1ccc(C(=O)Cn2nnc3ccccc32)cc1C`: 0.858 µM.
Regarding `Cc1ccc(-n2nc3ccc(NC(=O)C(C)C)cc3n2)cc1`, the AC40 is 0.555 µM.
Next, `CCn1c(COc2ccccc2C)nc2ccccc21`: 9.77 µM.
Consider `COc1ccc(/C=N/Nc2nccnc2Cl)c(OC)c1`, for which the AC40 was 2.68 µM.
With `CCn1c(C(=O)OC)cc2c1ccn2-c1ccc(F)cc1`, the AC40 is 2.94 µM.
The result for `Cc1ccc(N2C(=O)S/C(=C/c3cn(C)c4ccccc34)C2=O)cc1` reads 6.5 µM; that for `O=C(c1cccs1)N1CCn2c1nc1ccccc12`, 4.69 µM; that for `CC(C)(C)C(=O)OCc1nc(-c2ccc(F)cc2)cs1`, 11.3 µM.
Regarding `CN(C)c1ccnc2sc3c(SCc4ccc(Cl)cc4)ncnc3c12`, the AC40 was 4.29 µM.
The result for `O=C(NCC1CC1)Nc1ccc(Cl)cc1` reads 12.9 µM; that for `C=CCC1(CC=C)CCCN1C(=O)C1CCC(=O)N(CCc2ccccc2)C1` (configuration not stated), 7.52 µM; that for `COC(=O)c1cn(CC(=O)NCc2cccs2)c2ccccc12`, 9.32 µM.
The result for `Cc1ccc(O)c(-n2nc3ccccc3n2)c1` reads 1.21 µM; that for `Nc1ccc2oc(=O)c3ccccc3c2c1`, 3.19 µM.
As to `COc1ccccc1/C=C/C=N/n1c(-c2ccccn2)n[nH]c1=S`, the AC40 was 13.5 µM.
Next, `Cc1ccc(NC(=O)C(=O)NCc2ccccn2)cc1`: 16.4 µM.
As to `COc1ccc(/C(C)=N/Nc2nncc3ccccc23)cc1`, the AC40 is 0.58 µM.
The result for `CCCc1ccc(C(=O)NNc2ccccc2F)cc1` reads 8.64 µM.
In the case of `CCc1ccc(O)c(-c2cc(C(=O)Nc3cccnc3)[nH]n2)c1`, the AC40 is 2.44 µM.
For the molecule `Cc1ccc(C)c(NC(=O)c2cc(-c3cc(C)ccc3O)n[nH]2)c1`, the AC40 was 3.03 µM.
Turning to `CC(C)(C)n1ncc2c(=O)n(CC(=O)c3ccccc3)cnc21`, the AC40 is 2.87 µM.
`O=C(Cn1c(/C=C/c2ccccc2)nc2ccccc21)Nc1ccc(F)cc1`: the AC40 is 6.45 µM.
In the case of `Cc1cccnc1NC(=O)Nc1cccc(Cl)c1`, the AC40 is 2.56 µM.
As for `CCCCNc1ccc2c(c1)C1CC2CCN1C(=O)OCc1ccccc1` (configuration not stated), the AC40 is 3.32 µM.
The result for `Cc1cc2c([nH]c3ccccc32)c2c1OC(C)(C)C=C2` reads 3.8 µM; that for `Cc1nc(-c2noc(-c3ccccc3Cl)n2)c(C(F)(F)F)o1`, 11.9 µM; that for `O=C(O)c1ccccc1N/N=C/c1cc(Br)cc(Br)c1O`, 4.58 µM.
As for `CCCCNC(=O)c1cc2ccccc2s1`, the AC40 is 31 µM.
The result for `Cc1ccc(NC(=O)CC(=O)c2ccccc2)cc1C` reads 3.33 µM; that for `O=C(N=Nc1c(O)n(Cc2ccccc2)c2ccccc12)c1ccc(O)cc1`, 0.86 µM; that for `CC1CCN(c2ccc3c(c2)S(=O)(=O)c2ccccc2C3=O)CC1`, 0.442 µM.
`COc1ccc(N=C(C)c2sc3ccccc3c2O)cc1`: the AC40 was 1.82 µM.
For the molecule `COc1cc(OC)cc(-c2cc3cc(F)ccc3cn2)c1`, the AC40 is 1.71 µM.
With `Cc1ccc(-c2csc(C(C#N)=C3CCCC3)n2)cc1`, the AC40 is 2.84 µM.
Regarding `CSc1nc2ccc(NC(=O)c3cccs3)cc2s1`, the AC40 is 2.16 µM.
On to `C=CCNC(=O)c1ccc2nc(Cc3ccc(OC)cc3)oc2c1`, for which the AC40 is 2.37 µM.
For `CN(c1ccc(O)cc1)c1nc(O)c(C2=c3ccccc3=NC2=O)s1`, the AC40 is 8.06 µM.
The result for `NNC(=O)c1ccc2nc(-c3ccc(Br)cc3)cn2c1` reads 11.3 µM; that for `c1ccn(-c2ccc(-c3ccn[nH]3)cc2)c1`, 2.31 µM.
Regarding `c1ccc2c(-c3csc(-c4ccncc4)n3)c[nH]c2c1`, the AC40 was 2.93 µM.
Next, `CCCc1cc(-c2ccc3c(c2)COc2c4ccccc4nn2-3)on1`: 0.145 µM; `Nc1nc(CSc2ccccn2)nc(Nc2ccccc2)n1`: 1.31 µM; `c1csc(CSc2nc3ccccc3s2)c1`: 1.09 µM.
The result for `O=C(c1noc2c1CCCC2)N1CCc2ccccc2C1` reads 5.97 µM; that for `CSc1nc(N)n2nc(-c3ccc(Cl)cc3)cc2n1`, 0.727 µM; that for `COCc1nn2c(N)c(-c3ccccc3)cnc2c1-c1ccccc1`, 2.62 µM.
As to `N#C/C(C(=O)N1CCCCC1)=C1\Nc2ccccc2S1`, the AC40 was 5.02 µM.
Regarding `Cn1ccs/c1=N\C(=O)Nc1ccccc1`, the AC40 was 1.59 µM.
As to `CCn1c(C(=O)NC2CCC(C)CC2)cc2sccc21` (configuration not stated), the AC40 was 8.36 µM.
Next, `Clc1ccc(C#Cc2cccnc2)cc1`: 5.78 µM; `Oc1nc(Nc2ccccc2)sc1/C=C1\C=Nc2ccccc21`: 9.81 µM.
The result for `O=C(Cc1ccc(O)cc1)NC1CCCCCC1` reads 10.6 µM; that for `Cn1c(SCc2c(F)cccc2Cl)nnc1-c1cnccn1`, 6.16 µM.
With `CC(C)Nc1cc(C(C)(C)C)nc2c(-c3ccccc3)cnn12`, the AC40 is 8.53 µM.
The result for `COc1ccc2cc(C(=O)NCCc3ccccc3)[nH]c2c1` reads 11.6 µM.
For the molecule `Cc1ccc(Nc2ncc3c(n2)CC(C)(C)CC3=O)cc1`, the AC40 is 0.65 µM.
Take `c1ccc(-c2nc(-c3nccc4ccccc34)oc2-c2ccccc2)cc1`: the AC40 is 3.61 µM.
The result for `N#Cc1cc(C#N)c(N2CCN(c3ccccn3)CC2)nc1N` reads 4.47 µM; that for `CN(N=O)c1ccc(CC2CCc3ccccc32)cc1` (configuration not stated), 12.6 µM.
Next, `C=CCn1cccc(C(=O)Nc2ccc(Cl)cc2)c1=O`: > 11 µM (inactive); `Cc1ccc(C(=O)Nc2cccc(O)c2)cc1S(=O)(=O)N1CCCCCC1`: 8.12 µM; `Cc1cccc(-c2noc(Cc3ccccc3)n2)c1`: 2.93 µM.
With `Cc1ccc(N2NC(C)(c3cccs3)NC2=S)cc1` (configuration not stated), the AC40 was 1.42 µM.
With `C/C(=C\C(=O)c1cccnc1)Nc1ccc(C)c(C)c1`, the AC40 is 6.87 µM.
The result for `CC(C)(C)c1ccc(C(=O)Nc2ccc(F)cc2)s1` reads 0.374 µM; that for `O=C(NCCSc1ccccn1)c1ccc(Cl)cc1Cl`, 0.959 µM.
`COc1ccc(/C=N/N=C2/SCC(=O)N2Cc2ccccc2)cc1`: the AC40 was 2.67 µM.
Take `Cc1cccc(NC(=O)c2sc3nc(N)c(C#N)cc3c2N)c1`: the AC40 is 2.61 µM.
`Cc1ccc2cc(/C=N/Nc3ccc(C(=O)O)cc3)c(Cl)nc2c1`: the AC40 was 1.37 µM.
For `Cc1nn(-c2ccccn2)c2c1-c1nc(N)ncc1CC2`, the AC40 was 2.38 µM.
Take `Cc1nn(-c2ccc(N3CCCCC3)nn2)c(C)c1CCC(=O)Nc1cccc(F)c1`: the AC40 is 3.23 µM.
Consider `COc1ccc(C(=O)Nc2cc3c4c(c2)CC(=O)N4CCC3)c(OC)c1`, for which the AC40 is 6.24 µM.
In the case of `COc1ccc(N2C(=O)c3ccccc3NC23CCCCC3)cc1`, the AC40 is 1.62 µM.
Take `c1cncc(-c2nc3ccccc3s2)c1`: the AC40 was 3.8 µM.
As for `COC(=O)c1ccc(/C=N/Nc2nc(C)c(C)s2)cc1`, the AC40 was 1.5 µM.
For the molecule `Cc1[nH]n(-c2cccc(Cl)c2)c(=O)c1C=NCC(C)C`, the AC40 was 5.25 µM.
`Cc1ccc(CNc2ccc3c(c2)ncn3C(C)C)cc1`: the AC40 is 2.63 µM.
The result for `CCCSc1ccc(C(=O)Nc2ccc(F)cc2F)cn1` reads 27.2 µM; that for `c1ccc2c(c1)NC1(CCCC1)n1c-2nc2ccccc21`, 11.3 µM.
On to `Oc1ccc(/C=N/Nc2cccc(Cl)n2)c(O)c1`, for which the AC40 is 0.584 µM.
`CC(Cc1ccccc1)/[N+]([O-])=C\c1ccc(C(F)(F)F)cc1` (configuration not stated): the AC40 is 8.22 µM.
With `Nc1ccc(Oc2cc(N)cc(Oc3ccccc3)c2)cc1`, the AC40 is 4.99 µM.
Regarding `C/C(=N/OCc1ccc(Br)cc1)c1ccccn1`, the AC40 is 0.336 µM.
On to `O=C(CNc1cccc(F)c1)N1CCc2ccccc2C1`, for which the AC40 is 4.43 µM.
Take `O=C1/C(=C/c2cccnc2)CCc2c1[nH]c1ccccc21`: the AC40 is 6.49 µM.
Regarding `COc1nc(C)ccc1-c1noc(-c2ccncc2)n1`, the AC40 was 2.67 µM.
Consider `Cc1ccc2c(c1N)C(=O)c1ccccc1C2=O`, for which the AC40 was 3.96 µM.
Next, `C/C(=N/OC(=O)CC(C)C)c1cc(-c2ccc(Cl)cc2)no1`: 2.65 µM; `c1ccc(Cc2cc(-c3ccccc3)on2)cc1`: 2.58 µM; `N#Cc1ccc(C(=O)NC2CCCCCCC2)cc1`: 3.62 µM.
For `COc1ccc(Br)c(C(=O)Nc2nc3ccccc3[nH]2)c1`, the AC40 was 4.94 µM.
As for `COc1ccc(NC(=O)n2ncc3cc(Cl)ccc32)cc1OC`, the AC40 is 5.31 µM.
Consider `O=C(Cc1ccccn1)c1ccc(Cl)cc1`, for which the AC40 is 1.98 µM.
Turning to `CC1CCCC(C)N1C(=O)c1cc(-c2ccc3c(c2)OCO3)on1` (configuration not stated), the AC40 was 1.25 µM.
As for `Cc1cc2cc(OCc3ccccc3)ccc2n1C`, the AC40 was 0.737 µM.
Take `FC(F)(F)c1cnc(-c2cnc(-c3cccnc3)nc2)c(Cl)c1`: the AC40 is 3.02 µM.
As for `COc1ccc(C(=O)NN/C(=N/S(=O)(=O)c2ccc(C)cc2)c2ccccc2)cc1`, the AC40 was 1.48 µM.
On to `Cc1ccc(N(O)C(=O)NCCCCNC(=O)N(O)c2ccc(C)cc2)cc1`, for which the AC40 was 15.5 µM.
Take `COC(=O)Cc1ccc(NC(=O)c2ccc(C)c(C)c2)cc1`: the AC40 was 1.49 µM.
Turning to `CCc1ccc(NC(=O)c2ccc3nc(N)sc3c2)cc1`, the AC40 was 5.39 µM.
Consider `Cc1snc2sc(C(=O)c3ccc(Br)cc3)c(N)c12`, for which the AC40 is 1.48 µM.
On to `O=S(=O)(Cc1cc(-c2ccccc2Cl)no1)c1ccccc1`, for which the AC40 is 9.76 µM.
With `Cc1ccc(C(=O)NCCc2ccc(F)cc2)s1`, the AC40 is 0.245 µM.
